Experimental data as given in paper PMC5374619, “The synthetic peptide CIGB-300 modulates CK2-dependent signaling pathways affecting the survival and chemoresistance of non-small cell lung cancer cell lines” (Cancer Cell International, 2017).
Positions of bridges follow the written chain, without caps; N, C: chain ends. Non-standard residues stand in square brackets, D forms with d. Residues, ends and D or L forms follow the SMILES beside them. βAla = NCCC(=O)O

Tests used:
A549 cells = experiment: Cell viability, MTS assay, monolayer; format: cell-based, human; details: dose selected from the viability results
Experimental: (§1) We used two human non-small cell lung cancer (NSCLC) derived cell lines: the adenosquamous cell carcinoma NCI-H125 (CRL-5801) and the adenocarcinoma NIH-A549 (CCL-185). The murine L Wnt-3A cell line (CRL-2647) was used in order to produce conditioned media (CM) containing the wnt3a factor, following ATCC’s instructions. All cell lines were obtained from ATCC. H125 was grown in RPMI medium supplemented with 10% FBS and 80 µg/ml gentamycin. A549 and L cells were grown in DMEM media, with the above mentioned supplementation. All cell lines were cultured at 37 °C in a humidified air atmosphere with 5% CO2.
(§2) To assess the effect of CIGB-300 or cisplatin on cell viability, 1 × 10^4 cells/well were seeded into 96 well plates in standard culture conditions. Twenty-four hours later cells were treated with different doses of CIGB-300 (25–400 μM) or cisplatin (0.3–30 μM) during 72 h. Cell proliferation was evaluated after 72 h using the MTS assay (Celltiter 96TM Non Radioactive Proliferation Assay, Promega), as described by the manufacturer. Data were analyzed using the R package “ic50” [33] in order to determine the IC50 values for each drug. Alternatively, proliferative potential was determined by assessing cell number. Briefly, cells were seeded onto 35 mm Petri dishes, treated and after 72 h wells were washed twice with PBS, trypsinized, centrifuged, resuspended in a proper volume and finally counted using an hemocytometer and trypan blue exclusion. For apoptosis determination, A549 and A549-cispR cells growing on glass coverslips were treated with 300 μM of CIGB-300 for 18 h and then stained with Acridine orange (10 μg/ml) and Ethidium bromide (10 μg/ml). Visualization was performed with a Nikon, Eclipse E400 epifluorescence microscope. Uniform green nuclei with organized structure were considered as live cells. Bright green or orange to red nuclei were classified as early or late apoptotic cells respectively. Uniformly orange to red nuclei with organized structure were ascribed as necrotic cells. The percentage of dead cells was determined for each cell line.

H125 cells = experiment: Cell viability, MTS assay, monolayer; format: cell-based, human
Experimental: as §1, §2

H125 spheroids = experiment: 3D growth inhibition assay, multicellular tumor spheroids; format: cell-based, human; details: IC25 and IC50 doses of monolayers, after 5 days of treatment, medium replaced every 48 h
[1] = target: T1, α7/C8 (PSMA3) in H125 cells (Homo sapiens, UniProt P25788); experiment: Confocal immunofluorescence, co-occurrence with α7/C8; format: cell-based; details: H125, biotin-conjugated CIGB-300 30 min, cells with cytoplasmic signal, Manders coefficient
T1 construct: endogenous in cells; host or cells: H125 (NCI-H125) human NSCLC cells
Experimental: H125 cells growing on glass coverslips were treated with biotin-conjugated CIGB-300 for 30 min, washed twice with PBS, fixed in ice cold paraformaldehyde, permeabilized and blocked with PBS containing 5% bovine serum albumin for 1 h at RT. α7/C8 protein was detected by incubation with a specific primary antibody diluted in PBS containing 5% BSA, followed by an incubation with a secondary antibody coupled to Alexa 647 and with Streptavidin-FITC conjugated for 1 h at RT. Nuclei were stained with DAPI. Images were obtained in a LSM 510 Meta confocal Zeiss microscope. Confocal images were processed for presentation with ImageJ. Background of each channel was subtracted. Pearson’s and Mander’s coefficients were calculated using the JACoP plugin [38]. Single cell analysis for 15–20 representative cells was performed on three independent experiments.

proteasome in H125 cells = experiment: Proteasome-Glo Chymotrypsin-Like Cell-Based Assay; set-up: species or system human; details: H125, CIGB-300 30 min, luminescence
Experimental: Proteasome activity was assessed in H125 cells using the Proteasome-Glo Chymotrypsin-Like Cell-Based Assay (Promega) following manufacturer’s instructions. Briefly, H125 cells were plated onto 96-well plates and 24 h later treated with CIGB-300 (30 min) or with Bortezomib (4 h). Briefly: 100 µl of Proteasome-Glo™ Cell-Based Reagent were added to each 100 µl of sample and incubated at RT for 10 min. Luminescence emission was measured with a Multimode Microplate Reader, Synergy luminometer (Biotek).

[2] = system: NF-κB p65/relA in H125 cells; experiment: Western blot of nuclear p65/RelA; format: cell-based, human; details: H125, low-lethal dose (IC25), Western blot of nuclear extracts, with or without PMA
Experimental: (§3) For Wnt/β-CATENIN pathway studies, H125 sub-confluent monolayers were first incubated during 24 h with 50% of CM containing the wnt3a factor and then treated for another 6 h with a low-lethal dose of CIGB-300 (IC25) or during 2 h with the CK2 competitive inhibitor TBB (25 μM) as a control. […] For the analysis of NF-κB downstream targets, H125, A549 or A549-Rcisp cells were incubated for 2 h with CIGB-300 (IC50). In the case of Bortezomib, cells were previously pretreated with 8 nM of this drug during 4 h.
(§4) In order to determine β-CATENIN expression levels, cytoplasmic proteins were extracted using saponin buffer. Briefly, monolayer cultures were incubated for 20 min with ice-cold 0.1% saponin lysis buffer (25 mM Hepes, 75 mM potassium acetate and 0.1% saponin plus phosphatase and protease inhibitors). The extraction procedure was carried out twice and the extracts were pooled prior to their centrifugation. For NF-κB detection, nuclear and cytoplasmic proteins were separated by differential centrifugation following Abcam protocol. Briefly, semiconfluent monolayers were washed twice with ice-cold PBS and then collected in 250 μl of Fractionation Buffer (HEPES 20 mM, KCl 10 mM, MgCl2 2 mM, EDTA 1 mM and 2-Mercaptoethanol […]) with protease and phosphatase inhibitors by scrapping with a Teflon scrapper. […]

[3] = system: NF-κB-RE-luc in H125 cells; experiment: NF-κB-dependent reporter gene expression; format: cell-based, human; details: H125, PMA 16 nM 6 h, CIGB-300 IC25 during first hour, dual luciferase
Experimental: H125 cells were transiently co-transfected with NF-κB-RE-luc Luciferase Reporter Vector pGL4.32 and the Renilla Luciferase Control Reporter Vector pRL-TK (Promega, Madison, WI) in a 10:1 ratio, using Fugene (Promega) following manufacturer’s instructions. Briefly, 1 × 10^5 cells/well were seeded onto 24-well plates and transfected the next day. Six hours after adding transfection reagents, cells were washed and complete media was added. After an overnight recovery, cells were treated for 6 h with PMA (16 nM), in presence or not of CIGB-300 (IC25) during the first hour. Finally cells were lysed and the luciferase activities were determined using the Dual-Luciferase Reporter Assay System (Promega) and normalized to the constitutive Renilla luciferase activity.

β-CATENIN in H125 cells = experiment: Western blot of cytoplasmic β-CATENIN; format: cell-based, human
Experimental: as §3, §4

[4] = system: A549 and A549-cispR cells; experiment: Apoptosis, acridine orange/ethidium bromide double staining; format: cell-based, human; details: 300 μM CIGB-300, 18 h
Experimental: To assess the effect of CIGB-300 or cisplatin on cell viability, 1 × 10^4 cells/well were seeded into 96 well plates in standard culture conditions. Twenty-four hours later cells were treated with different doses of CIGB-300 (25–400 μM) or cisplatin (0.3–30 μM) during 72 h. Cell proliferation was evaluated after 72 h using the MTS assay (Celltiter 96TM Non Radioactive Proliferation Assay, Promega), as described by the manufacturer. Data were analyzed using the R package “ic50” [33] in order to determine the IC50 values for each drug. Alternatively, proliferative potential was determined by assessing cell number. Briefly, cells were seeded onto 35 mm Petri dishes, treated and after 72 h wells were washed twice with PBS, trypsinized, centrifuged, resuspended in a proper volume and finally counted using an hemocytometer and trypan blue exclusion. For apoptosis determination, A549 and A549-cispR cells growing on glass coverslips were treated with 300 μM of CIGB-300 for 18 h and then stained with Acridine orange (10 μg/ml) and Ethidium bromide (10 μg/ml). Visualization was performed with a Nikon, Eclipse E400 epifluorescence microscope. Uniform green nuclei with organized structure were considered as live cells. Bright green or orange to red nuclei were classified as early or late apoptotic cells respectively. […] The percentage of dead cells was determined for each cell line.

[5] = up to 40 mg/kg/day intravenously; cited from earlier work
[6] = 24 h post intravenous injection; cited from earlier work
[7] = system: A549 and A549-cispR cells; experiment: Viability by cell number after cisplatin; format: cell-based, human; details: cell number 72 h after cisplatin, untreated set as 100%
Excerpt: Parental A549 cells were maintained in culture during the same period.

With `CSCC[C@@H]1NC(=O)[C@H](Cc2c[nH]c3ccccc23)NC(=O)[C@@H](NC(=O)CCNC(=O)[C@H](CCC(N)=O)NC(=O)[C@@H]2CCCN2C(=O)[C@@H]2CCCN2C(=O)[C@H](CCCNC(=N)N)NC(=O)[C@H](CCCNC(=N)N)NC(=O)[C@H](CCCNC(=N)N)NC(=O)[C@H](CCC(N)=O)NC(=O)[C@H](CCCNC(=N)N)NC(=O)[C@H](CCCNC(=N)N)NC(=O)[C@H](CCCCN)NC(=O)[C@H](CCCCN)NC(=O)[C@H](CCCNC(=N)N)NC(=O)CN)CSSC[C@@H](C(=O)O)NC(=O)[C@H]([C@@H](C)O)NC(=O)CNC(=O)[C@H](CC(C)C)NC(=O)[C@H](Cc2c[nH]cn2)NC(=O)[C@H](CCCNC(=N)N)NC(=O)[C@@H]2CCCN2C(=O)[C@H](CO)NC1=O` [CIGB-300] (H-GRKKRRQRRRPPQ[βAla]CWMSPRHLGTC-OH; disulfide 15-25; N-terminus and C-terminus assumed) the “IC25 (low-lethal dose)” value (A549 cells) was 150 µM, the “IC25 (low-lethal dose)” value (H125 cells; dose selected from the viability results) was 60 µM and the “volume of treated spheroids compared with untreated controls” value (H125 spheroids) was “significantly lower”. For the same compound, the “α7/C8 coincident with CIGB-300 presence” value [1] was “More than 80%”, the proteasomal activity (proteasome in H125 cells) was “increased proteasomal activity” and the “nuclear levels of p65/relA” value [2] was “reduced the nuclear levels”. For the same compound, the NF-κB transcriptional response [3] was “decreased NF-κB transcriptional response”, the “β-CATENIN cytoplasmic accumulation with active Wnt pathway” value (β-CATENIN in H125 cells; H125, 24 h 50% CM with wnt3a, then CIGB-300 IC25 6 h or TBB 25 μM 2 h) was “partially reverted” and the “basal levels of cytoplasmic β-CATENIN” value (β-CATENIN in H125 cells; H125, low-lethal dose CIGB-300 6 h, no wnt3a) was “not reduced”. The “number of dead cells on A549-cispR vs A549” value [4] was “significantly increased”, the “tolerability of high doses” value [5] was “safe, well tolerated and non-toxic” and the “peptide uptake at tumor site” value [6] was “up to 1.5%”.
In the case of `N.N.[Cl][Pt][Cl]` [cisplatin, cisdiammine-dichloro-platinum, reference compound], the IC50 (H125 cells; MTS assay, 72 h treatment, R package ic50, three independent experiments) is reported as 1 µM and the “viability of A549-cispR relative to parental A549 after cisplatin treatment” value [7] is reported as “twofold higher”.
